In patent publication US20170152258A9, “Substituted Pyridopyrazines as Syk Inhibitors” (HUTCHISON MEDIPHARMA LIMITED, priority 2012, published 2017):

Columns and labels:
[1] = target: Syk kinase (Homo sapiens, UniProt P43405); test: SYK Enzymatic Assay (Z-LYTE Tyr 2 peptide); type: biochemical; conditions: 8 concentrations 1 μM down to 0.0003 μM
Method in brief: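 Z-LYTE format using Tyr 2 peptide. After the 1 h room-temperature kinase reaction, development reagent was added for 1 h, then stop reagent. Fluorescence was read at 445 and 520 nm. Compounds were tested at 8 concentrations, 1 μM down to 0.0003 μM (1:3 dilutions).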

[2] = system: RBL-2H3 cells; test: IgE-induced Beta-hexosaminidase secretion in RBL-2H3 cells; type: cell-based; conditions: DNP-BSA stimulation
Experimental: For the determination of IgE-induced Beta-hexosaminidase secretion, RBL-2H3 cells (SIBS) are seeded in 96 well plates at 4×10^4 cells per well and incubated in MEM media with 15% FBS and Glutamine ([…]) for 4 hours and sensitized with 0.5 ug/ml of SPE-7 overnight. Cells are washed 3 times with Tyrode's buffer and incubated in the presence or absence of various concentrations of the testing compound for 20 min at 37° C., 5% CO2. Cells are stimulated by adding 10 uL of DNP-BSA solution (150 ng/mL) to each well and incubating for 45 minutes at 37° C., 5% CO2. Then, 45 μL of the supernatant is taken and incubated with 100 μL of 1 mM 4-Nitrophenyl N-acetyl-β-D-glucosaminide (Sigma, Cat. No. N9376), which is diluted in 0.05 M citrate buffer (pH 4.5), for 1.5 hr at 37° C. The reactions are quenched by adding 185 μL of 0.05 M sodium carbonate buffer (pH 10.0). Plates are read at 405 nm on Multiskan (MK 3).

[3] = Rattus norvegicus, RBL-2H3, IgE-induced Beta-hexosaminidase secretion
[4] = IgE-induced Beta-hexosaminidase secretion

| Structure (SMILES) | IC50 [1] | IC50 [2, 3] | IC50 [2, 4] |
| --- | --- | --- | --- |
| NS(=O)(=O)N1CCO[C@H](COc2nc(-c3ccc(N4CCOCC4)cc3)cc3nccnc23)C1 [Compound 62] | 24 nM | 97 nM | – |
| NC(=O)N1CCO[C@H](COc2nc(-c3ccc(N4CCOCC4)cc3)cc3nccnc23)C1 [Compound 63] | 37 nM | 342 nM | – |
| CN1CCN(c2ccc(-c3cc4nccnc4c(OC[C@@H]4CN(S(N)(=O)=O)CCO4)n3)cc2)CC1 [Compound 64] | 20 nM | 487 nM | – |
| CN(C)CCS(=O)(=O)N1CCO[C@H](COc2nc(-c3ccc(N4CCOCC4)cc3)cc3nccnc23)C1 [Compound 65] | 53 nM | 181 nM | – |
| COCCS(=O)(=O)N1CCO[C@H](COc2nc(-c3ccc(N4CCOCC4)cc3)cc3nccnc23)C1 [Compound 66] | 58 nM | 230 nM | – |
| CC(=O)N1CCO[C@H](COc2nc(-c3ccc(N(C)C)cc3)cc3nccnc23)C1 [Compound 67] | 52 nM | 89 nM | – |
| CC(C)C(=O)N1CCO[C@H](COc2nc(-c3ccc(N(C)C)cc3)cc3nccnc23)C1 [Compound 68] | 63 nM | 110 nM | – |
| CN(C)c1ccc(-c2cc3nccnc3c(OC[C@@H]3CN(C(=O)C4CC4)CCO3)n2)cc1 [Compound 69] | 39 nM | 62 nM | – |
| CN(C)c1ccc(-c2cc3nccnc3c(OC[C@@H]3CN(C(=O)CC4CC4)CCO3)n2)cc1 [Compound 70] | 99 nM | 213 nM | – |
| CN(C)c1ccc(-c2cc3nccnc3c(OC[C@@H]3CN(C(=O)C4CC(F)(F)C4)CCO3)n2)cc1 [Compound 71] | 127 nM | 335 nM | – |
| CN(C)c1ccc(-c2cc3nccnc3c(OC[C@@H]3CN(C(=O)[C@@H]4CCOC4)CCO3)n2)cc1 [Compound 72] | 109 nM | 188 nM | – |
| CN(C)c1ccc(-c2cc3nccnc3c(OC[C@@H]3CN(C(=O)C4CCOCC4)CCO3)n2)cc1 [Compound 73] | 204 nM | 142 nM | – |
| CN(C)c1ccc(-c2cc3nccnc3c(OC[C@@H]3CN(C(=O)[C@H]4CC[C@H](O)CC4)CCO3)n2)cc1 [Compound 74] | 127 nM | 186 nM | – |
| CN(C)c1ccc(-c2cc3nccnc3c(OC[C@@H]3CN(C(=O)[C@H]4CC[C@@H](O)CC4)CCO3)n2)cc1 [Compound 75] | 95 nM | 131 nM | – |
| CN(C)c1ccc(-c2cc3nccnc3c(OC[C@@H]3CN(C(=O)CC#N)CCO3)n2)cc1 [Compound 76] | 40 nM | 88 nM | – |
| CN(C)c1ccc(-c2cc3nccnc3c(OC[C@@H]3CN(C(=O)CCC#N)CCO3)n2)cc1 [Compound 77] | 85 nM | 202 nM | – |
| CN(C)c1ccc(-c2cc3nccnc3c(OC[C@@H]3CN(C(=O)c4cccnc4)CCO3)n2)cc1 [Compound 78] | 61 nM | 74 nM | – |
| O=S(=O)(C1CC1)N1CCO[C@H](COc2nc(-c3ccc(N4CCOCC4)cc3)cc3nccnc23)C1 [Compound 83] | 74 nM | 92 nM | – |
| CN(C)c1ccc(-c2cc3nccnc3c(OC[C@@H]3CN(C(=O)Cc4c[nH]cn4)CCO3)n2)cc1 [Compound 84] | 81 nM | 316 nM | – |
| CN(C)c1ccc(-c2cc3nccnc3c(OC[C@@H]3CN(C(=O)c4ncc[nH]4)CCO3)n2)cc1 [Compound 86] | 110 nM | 616 nM | – |
| CN(C)c1ccc(-c2cc3nccnc3c(OC[C@@H]3CN(C(=O)c4cnn(C)c4)CCO3)n2)cc1 [Compound 87] | 60 nM | 200 nM | – |
| CCS(=O)(=O)N1CCO[C@H](COc2nc(-c3ccc(N(C)C)cc3)cc3nccnc23)C1 [Compound 88] | 32 nM | 98 nM | – |
| CC(C)S(=O)(=O)N1CCO[C@H](COc2nc(-c3ccc(N(C)C)cc3)cc3nccnc23)C1 [Compound 89] | 96 nM | 207 nM | – |
| CN(C)c1ccc(-c2cc3nccnc3c(OC[C@@H]3CN(S(=O)(=O)C4CC4)CCO3)n2)cc1 [Compound 90] | 46 nM | 61 nM | – |
| CN(C)c1ccc(-c2cc3nccnc3c(OC[C@@H]3CN(S(=O)(=O)c4cccnc4)CCO3)n2)cc1 [Compound 92] | 76 nM | 72 nM | – |
| CN(C)c1ccc(-c2cc3nccnc3c(OC[C@@H]3CN(S(C)(=O)=O)CCO3)n2)cc1 [Compound 94] | 15 nM | 22 nM | 40 nM |
| CN(C)c1ccc(-c2cc3nccnc3c(OC[C@@H]3CN(C(=O)[C@H]4CCOC4)CCO3)n2)cc1 [Compound 95] | 31 nM | 49 nM | 71 nM |

| Structure (SMILES) | IC50 [1] | IC50 [2, 3] | IC50 [2, 4] |
| --- | --- | --- | --- |
| CN(C)c1ccc(-c2cc3nccnc3c(OC[C@@H]3CN(C(=O)C4CCCC4)CCO3)n2)cc1 [Compound 98] | 55 nM | 230 nM | – |
| CNC(=O)CS(=O)(=O)N1CCO[C@H](COc2nc(-c3ccc(N(C)C)cc3)cc3nccnc23)C1 [Compound 99] | 23 nM | 106 nM | – |
| CN(C)c1ccc(-c2cc3nccnc3c(OC[C@@H]3CN(C(=O)C(F)F)CCO3)n2)cc1 [Compound 100] | 31 nM | 68 nM | – |
| Cc1nccn1CCS(=O)(=O)N1CCO[C@H](COc2nc(-c3ccc(N(C)C)cc3)cc3nccnc23)C1 [Compound 101, (S)—N,N-dimethyl-4-(5-((4-(2-(2-methyl-1H-imidazol-1-yl)ethylsulfonyl)morpholin-2-yl)methoxy)pyrido[4,3-b]pyrazin-7-yl)aniline] | 52 nM | 503 nM | – |
| CN(C)c1ccc(-c2cc3nccnc3c(OC[C@@H]3CN(S(=O)(=O)CCN4CC[C@@H](O)C4)CCO3)n2)cc1 [Compound 102] | 38 nM | 108 nM | – |
| CN(C)c1ccc(-c2cc3nccnc3c(OC[C@@H]3CN(S(=O)(=O)CCN4CC[C@H](O)C4)CCO3)n2)cc1 [Compound 103] | 32 nM | 325 nM | – |
| CN(CC#N)CCS(=O)(=O)N1CCO[C@H](COc2nc(-c3ccc(N(C)C)cc3)cc3nccnc23)C1 [Compound 104] | 38 nM | 127 nM | – |
| Cn1ncc2cc(-c3cc4nccnc4c(OC[C@@H]4CN(S(C)(=O)=O)CCO4)n3)ccc21 [Compound 105] | 39 nM | 77 nM | – |
| CN(C)c1ccc(-c2cc3nccnc3c(OC[C@@H]3CN(S(C)(=O)=O)CCO3)n2)cc1Cl [Compound 108] | 19 nM | 52 nM | – |
| CS(=O)(=O)N1CCO[C@H](COc2nc(-c3ccc4c(c3)OCCO4)cc3nccnc23)C1 [Compound 109] | 97 nM | 131 nM | – |
| CS(=O)(=O)N1CCO[C@H](COc2nc(-c3ccc4c(c3)OCO4)cc3nccnc23)C1 [Compound 110] | 211 nM | 163 nM | – |
| CS(=O)(=O)N1CCO[C@H](COc2nc(-c3ccc4ncccc4c3)cc3nccnc23)C1 [Compound 111] | 117 nM | 119 nM | – |
| CCN(CC)c1ccc(-c2cc3nccnc3c(OC[C@@H]3CN(S(C)(=O)=O)CCO3)n2)cc1 [Compound 119] | 16 nM | 34 nM | – |
| Cn1ccc2ccc(-c3cc4nccnc4c(OC[C@@H]4CN(S(C)(=O)=O)CCO4)n3)cc21 [Compound 120] | 61 nM | 41 nM | – |
| CC(=O)N1CCN(c2ccc(-c3cc4nccnc4c(OC[C@@H]4CN(S(C)(=O)=O)CCO4)n3)cc2)CC1 [Compound 122] | 15 nM | 73 nM | – |
| CN(C)c1ccc(-c2cc3nccnc3c(O[C@@H]3CCOC3)n2)cc1 [Compound 123] | 30 nM | 35 nM | – |
| CS(=O)(=O)N1CCC(c2ccc(-c3cc4nccnc4c(O[C@@H]4CCOC4)n3)cc2)CC1 [Compound 124] | 33 nM | 45 nM | – |
| CN1CCN(c2ccc(-c3cc4nccnc4c(O[C@@H]4CCOC4)n3)cc2)CC1 [Compound 125] | 31 nM | 43 nM | – |
| COc1cc(-c2cc3nccnc3c(OC[C@@H]3CN(S(C)(=O)=O)CCO3)n2)ccc1OCCN(C)C [Compound 126] | 41 nM | 366 nM | – |
| CN(C)c1ccc(-c2cc3nccnc3c(OC3CCCOC3)n2)cc1 (stereo not drawn) [Compound 127] | 58 nM | 77 nM | – |
| CNC(=O)COc1ccc(-c2cc3nccnc3c(OC[C@@H]3CN(S(C)(=O)=O)CCO3)n2)cc1 [Compound 129] | 50 nM | 230 nM | – |
| CCN(CC)c1ccc(-c2cc3nccnc3c(OC[C@@H]3CN(C(C)=O)CCO3)n2)cc1 [Compound 131] | 28 nM | 39 nM | – |
| CNc1ccc(-c2cc3nccnc3c(O[C@@H]3CCOC3)n2)cc1 [Compound 133] | 45 nM | 24 nM | – |
| Cc1cc(-c2cc3nccnc3c(OC[C@@H]3CN(S(C)(=O)=O)CCO3)n2)ccc1N(C)C [Compound 134] | 3 nM | 15 nM | – |
| CN(C)c1ccc(-c2cc3nccnc3c(OC[C@@H]3CN(C(N)=O)CCO3)n2)cc1 [Compound 136] | 25 nM | 99 nM | – |
| CNC(=O)N1CCO[C@H](COc2nc(-c3ccc(N(C)C)cc3)cc3nccnc23)C1 [Compound 137] | 28 nM | 45 nM | – |
| CC(=O)N1CCO[C@H](COc2nc(-c3ccc(N(C)C)c(F)c3)cc3nccnc23)C1 [Compound 139] | 95 nM | 119 nM | 194 nM |
